From PMC5842406, “Antidyslipidemic potential of a novel farnesoid X receptor antagonist in a hamster model of dyslipidemia: Comparative studies of other nonstatin agents” (Pharmacology Research & Perspectives, 2018)

Assays:
FXR [1] = biological target: T1, FXR (Homo sapiens, UniProt Q96RI1); assay: luciferase reporter gene assay, agonist mode; format: cell-based; details: read-out: ED50 values
T1 construct: gene NR1H4
T1 sequence (Q96RI1 1-486): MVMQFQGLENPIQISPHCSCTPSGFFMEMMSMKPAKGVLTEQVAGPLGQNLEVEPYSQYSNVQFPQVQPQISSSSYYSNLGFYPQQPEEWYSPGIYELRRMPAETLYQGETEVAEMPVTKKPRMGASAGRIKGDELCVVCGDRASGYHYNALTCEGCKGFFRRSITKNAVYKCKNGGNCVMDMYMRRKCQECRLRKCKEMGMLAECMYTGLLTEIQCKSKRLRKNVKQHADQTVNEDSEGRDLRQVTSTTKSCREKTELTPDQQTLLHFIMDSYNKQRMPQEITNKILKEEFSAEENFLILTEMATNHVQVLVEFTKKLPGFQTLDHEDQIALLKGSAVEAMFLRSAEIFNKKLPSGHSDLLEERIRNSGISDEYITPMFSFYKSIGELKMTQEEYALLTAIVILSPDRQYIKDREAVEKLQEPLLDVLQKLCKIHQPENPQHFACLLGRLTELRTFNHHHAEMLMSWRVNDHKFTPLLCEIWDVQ
Description: luciferase reporter gene assay, agonist mode on FXR

RXRβ = test system: T2, RXRβ; assay: nuclear receptor panel reporter assay, antagonist mode; format: cell-based, Homo sapiens; details: control ligand not told for RXRβ
T2 construct: gene RXRB; not described
Description: nuclear receptor panel reporter assay, antagonist mode on RXRβ

PPARγ = biological target: T3, PPARγ (Homo sapiens, UniProt P37231); assay: nuclear receptor panel assay, agonist mode; format: cell-based; details: read-out: ED50 values
T3 construct: gene PPARG
T3 sequence (P37231 1-505): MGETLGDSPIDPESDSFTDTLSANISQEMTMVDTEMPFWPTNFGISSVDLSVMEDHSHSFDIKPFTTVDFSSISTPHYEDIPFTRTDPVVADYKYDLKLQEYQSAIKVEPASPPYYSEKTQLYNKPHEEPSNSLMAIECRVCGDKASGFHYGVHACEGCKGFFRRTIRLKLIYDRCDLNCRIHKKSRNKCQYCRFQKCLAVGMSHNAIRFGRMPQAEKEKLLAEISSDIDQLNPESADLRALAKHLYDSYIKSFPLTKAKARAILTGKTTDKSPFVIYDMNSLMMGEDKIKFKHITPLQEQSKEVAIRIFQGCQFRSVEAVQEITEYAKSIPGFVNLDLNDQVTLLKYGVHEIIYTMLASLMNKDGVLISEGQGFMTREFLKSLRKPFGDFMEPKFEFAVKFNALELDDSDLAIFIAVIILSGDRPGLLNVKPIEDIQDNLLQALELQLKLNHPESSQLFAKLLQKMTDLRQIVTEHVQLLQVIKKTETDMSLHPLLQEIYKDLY
Description: nuclear receptor panel assay, agonist mode on PPARγ

FXR [2] = biological target: T1, FXR; assay: luciferase reporter gene assay, antagonist mode; format: cell-based
Description: luciferase reporter gene assay, antagonist mode on FXR

CC(C)(C)n1ncc(C(=O)Nc2ccc(Cl)c(CN3CCC(Oc4ccc(C(=O)O)cc4)CC3)c2)c1-c1ccc(F)cc1 [compound‐T1, 4‐({1‐[5‐({[1‐tert‐butyl‐5‐(4‐fluorophenyl)‐1H‐pyrazol‐4‐yl]carbonyl}amino)‐2‐chlorobenzyl]piperidin‐4‐yl}oxy)benzoic acid]
EC50 (FXR [1]): > 10 µM | IC50 (RXRβ): > 10 µM | EC50 (PPARγ): > 10 µM | IC50 (FXR [2]): 2.1 nM
